In article PMC6151569 (Molecules : A Journal of Synthetic Chemistry and Natural …, 2017):
Where two headings read alike, the source gives them in different places.

Tests used:
[1] = tested on: LPS-stimulated TNF-α release from human whole blood; assay: HWB assay, inhibition of LPS-stimulated TNF-α release; assay type: cell-based; settings: n = 2
Experimental: (§1) 2-Alkylsulfanyl imidazoles 1 and 2 were evaluated in an enzyme-linked immunosorbent assay (ELISA) as well as in a fluorescence polarization (FP)-based assay for their ability to inhibit and bind to the p38α MAP kinase. Moreover, the ability of the novel compounds to inhibit the LPS-stimulated TNF-α release in HWB was tested. In this ex vivo assay, the efficacy of the inhibitors is determined more specifically with regard to pharmacokinetic characteristics such as cellular permeability and plasma protein binding.

[2] = HLM stability test with LC-MS metabolite screening; assay type: in vitro ADME, human; settings: for Degradation: compound remaining, AVERAGE: HLM; for compound present / remaining unmetabolized: after incubation time of 4 h with HLM; for biotransformation / degradation: after 4 h of incubation with HLM
Experimental: Pooled human liver microsomes (adult male & female) were purchased from Merck (Schnelldorf, Germany). These microsomes were characterized in protein and CYP content. All incubations (final total volume 1050 µL) were made in the presence of an NADPH-regenerating system, consisting of 5 mM Glucose-6-phosphate, 5 U/mL Glucose-6-phosphate dehydrogenase and 1 mM NADP^+. The substrate (100 μM), the NADPH regenerating system and 4 mM MgCl2 × 6 H2O in 0.1 M Tris buffer (pH 7.4 at 37 °C) were preincubated for 5 min in an incubator at 37 °C and 750 rpm. The incubation mix was split into 50 μL aliquots and the reaction was started by addition of the HLM. Thereby the microsomal protein content was standardized to 1 mg/mL. To follow the course of metabolism, the reaction tubes were quenched at selected time points (0, 10, 20, 30, 60, 120, 180 and 240 min) by adding 100 μL internal standard at a concentration of 22.5 µM in MeCN. The samples were vortexed for 30 s and centrifuged (19,800 relative centrifugal force/4 °C/10 min). The supernatant was directly used for LC-MS analysis (for detailed LC-MS conditions, see supplementary materials). […] In all incubations, a limit of 1% organic solvent was not exceeded. […]
Screening of Metabolites by LC-MS Analysis
Metabolite formation was analyzed with an Alliance 2695 Separations Module (Waters GmbH, Eschborn). Sam ples maintained at 4°C, the column tem perature was set to 40°C and inj ection volume was 10 μL. The chromatographic separation for analytes 1 and ML3404 was performed on a Phenomenex Synergi Max-RP column (150 x 4.6 mm; 5 μm); LN950 and 2 on a Phenomenex Synergi Polar-RP column (150 x 4.6 mm; 5 μm) with a precolumn of the same material, respectively. An isocratic gradient of 8.5 min with 30% solvent A (90% H2O, 10% ACN, 0.1% formic acid) and 70% solvent B (ACN, 0.1% formic acid) at a flow rate of 400 μL/min was used for LN950. 1 and ML3404 were chromatographically separated by a binary gradient of 11.25 min with the equal solvents as mentioned before at a flow rate of 400 μL/min. The initial composition of 10% B was held for 20 sec, followed by a linear gradient up to 85% B in 5.8 min, holding for 30 sec, immediately changing to 10% B and reequilibrating at the end. The detection was performed on a Micromass Quattro micro triple quadrupole mass spectrometer (Waters GmbH, Eschborn) using the electrospray-ionization in the positive-mode. Correspondent to the analyte the spray voltage was set to 3.0-4.0 kV. The heated capillary o perated at 250°C and the desolvation gas flow worked at 500 L/h.

[3] = tested on: LPS-stimulated TNF-α release from human whole blood; settings: cited from earlier work
[4] = male and female human liver microsomes; cited from earlier work
[5] = mouse liver microsomes; cited from earlier work
[6] = rat liver microsomes; cited from earlier work
p38α MAP kinase [7] = biological target: T1, p38α MAP kinase (Homo sapiens, UniProt Q16539); settings: metabolite of ML3403; cited from earlier work
CYP1A2 = biological target: T2, CYP1A2 (Homo sapiens, UniProt P05177); assay: CYP inhibition (fluorimetric detection) assay; assay type: in vitro ADME; settings: recombinant human CYP1A2, read-out: (%) inhibition of CYP 1A2
T2 construct: purchased Eurofins Panlabs Inc. (contract assay)
T2 sequence (P05177 1-516): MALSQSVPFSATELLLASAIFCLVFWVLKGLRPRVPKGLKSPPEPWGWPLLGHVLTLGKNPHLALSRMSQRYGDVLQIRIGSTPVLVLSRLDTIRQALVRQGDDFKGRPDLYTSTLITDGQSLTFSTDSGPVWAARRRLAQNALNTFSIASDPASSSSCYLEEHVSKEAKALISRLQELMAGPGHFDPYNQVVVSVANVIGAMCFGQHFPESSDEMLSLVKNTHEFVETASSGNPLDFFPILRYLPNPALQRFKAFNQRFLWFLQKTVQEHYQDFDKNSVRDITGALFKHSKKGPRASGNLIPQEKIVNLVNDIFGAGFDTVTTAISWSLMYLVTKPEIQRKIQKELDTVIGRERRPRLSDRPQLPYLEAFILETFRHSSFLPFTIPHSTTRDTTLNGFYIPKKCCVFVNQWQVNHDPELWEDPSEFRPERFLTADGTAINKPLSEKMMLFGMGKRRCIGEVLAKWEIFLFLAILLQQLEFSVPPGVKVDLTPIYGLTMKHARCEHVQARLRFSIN
Experimental: (§2) CYP inhibition (fluorimetric detection) assay was performed by Eurofins Panlabs Inc. (St. Charles, MO, USA) with human recombinant CYP enzyme and the appropriate CYP substrate.

CYP2C19 = biological target: T3, CYP2C19 (Homo sapiens, UniProt P33261); assay: CYP inhibition (fluorimetric detection) assay; assay type: in vitro ADME; settings: recombinant human CYP2C19, read-out: (%) inhibition of CYP 2C19
T3 construct: purchased Eurofins Panlabs Inc. (contract assay)
Experimental: as §2

CYP2C9 = biological target: T4, CYP2C9 (Homo sapiens, UniProt P11712); assay: CYP inhibition (fluorimetric detection) assay; assay type: in vitro ADME; settings: recombinant human CYP2C9, read-out: (%) inhibition of CYP 2C9
T4 construct: purchased Eurofins Panlabs Inc. (contract assay)
Experimental: as §2

CYP2D6 = biological target: T5, CYP2D6 (Homo sapiens, UniProt P10635); assay: CYP inhibition (fluorimetric detection) assay; assay type: in vitro ADME; settings: recombinant human CYP2D6, read-out: (%) inhibition of CYP 2D6
T5 construct: purchased Eurofins Panlabs Inc. (contract assay)
Experimental: as §2

CYP3A4 = biological target: T6, CYP3A4 (Homo sapiens, UniProt P08684); assay: CYP inhibition (fluorimetric detection) assay; assay type: in vitro ADME; settings: recombinant human CYP3A4, read-out: (%) inhibition of CYP 3A4
T6 construct: purchased Eurofins Panlabs Inc. (contract assay)
Experimental: as §2

p38α MAP kinase [8] = biological target: T1, p38α MAP kinase; settings: read-out: FP Assay p38α Ki; cited from earlier work
p38α MAP kinase [9] = biological target: T1, p38α MAP kinase; assay: ELISA assay, inhibition of p38α MAP kinase; assay type: biochemical; settings: for IC50: n = 3
Experimental: as §1

p38α MAP kinase [10] = biological target: T1, p38α MAP kinase; assay: fluorescence polarization (FP)-based binding assay; settings: for increase in binding affinity toward p38α MAP kinase relative to the 2-alkylsulfanylimidazole counterpart: 1 vs ML3403, 2 vs LN950; for Ki: n = 3
Experimental: as §1

[11] = tested on: CYP1A2, CYP2C9, CYP2C19, CYP2D6 and CYP3A4; assay: CYP inhibition screening, statements on the whole panel; assay type: in vitro ADME, human; settings: human
Experimental: as §2

[12] = tested on: CYP isoforms 1A2, 2C9, 2C19, 2D6 and 3A4; assay: as above; assay type: in vitro ADME, human
Experimental: as §2

T6 sequence (P08684 whole entry): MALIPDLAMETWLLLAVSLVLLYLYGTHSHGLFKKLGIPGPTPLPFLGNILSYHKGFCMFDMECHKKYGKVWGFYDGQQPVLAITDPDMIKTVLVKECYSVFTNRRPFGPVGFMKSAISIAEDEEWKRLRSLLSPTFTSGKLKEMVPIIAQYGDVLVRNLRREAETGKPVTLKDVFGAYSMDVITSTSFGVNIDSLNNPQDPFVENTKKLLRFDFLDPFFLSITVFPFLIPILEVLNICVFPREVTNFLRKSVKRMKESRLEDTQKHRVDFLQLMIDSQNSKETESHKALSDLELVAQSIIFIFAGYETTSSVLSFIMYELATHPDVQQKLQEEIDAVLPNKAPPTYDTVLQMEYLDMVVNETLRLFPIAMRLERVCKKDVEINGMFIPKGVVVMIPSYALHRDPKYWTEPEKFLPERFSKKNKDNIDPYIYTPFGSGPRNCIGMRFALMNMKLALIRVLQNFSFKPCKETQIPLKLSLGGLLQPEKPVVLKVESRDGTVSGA
T5 sequence (P10635 whole entry): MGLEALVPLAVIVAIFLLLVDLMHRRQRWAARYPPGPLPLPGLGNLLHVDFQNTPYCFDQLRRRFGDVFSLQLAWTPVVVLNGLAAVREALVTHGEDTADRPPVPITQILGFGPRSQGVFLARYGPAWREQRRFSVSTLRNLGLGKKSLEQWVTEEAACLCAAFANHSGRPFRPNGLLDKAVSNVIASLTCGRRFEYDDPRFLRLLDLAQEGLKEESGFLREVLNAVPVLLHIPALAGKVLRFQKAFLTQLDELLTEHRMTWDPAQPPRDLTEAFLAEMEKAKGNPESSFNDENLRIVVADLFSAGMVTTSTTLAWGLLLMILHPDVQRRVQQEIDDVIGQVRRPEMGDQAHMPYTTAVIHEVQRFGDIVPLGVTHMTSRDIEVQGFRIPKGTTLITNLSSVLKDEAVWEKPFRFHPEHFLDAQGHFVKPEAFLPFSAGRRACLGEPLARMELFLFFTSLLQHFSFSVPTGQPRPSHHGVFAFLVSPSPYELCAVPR
T3 sequence (P33261 whole entry): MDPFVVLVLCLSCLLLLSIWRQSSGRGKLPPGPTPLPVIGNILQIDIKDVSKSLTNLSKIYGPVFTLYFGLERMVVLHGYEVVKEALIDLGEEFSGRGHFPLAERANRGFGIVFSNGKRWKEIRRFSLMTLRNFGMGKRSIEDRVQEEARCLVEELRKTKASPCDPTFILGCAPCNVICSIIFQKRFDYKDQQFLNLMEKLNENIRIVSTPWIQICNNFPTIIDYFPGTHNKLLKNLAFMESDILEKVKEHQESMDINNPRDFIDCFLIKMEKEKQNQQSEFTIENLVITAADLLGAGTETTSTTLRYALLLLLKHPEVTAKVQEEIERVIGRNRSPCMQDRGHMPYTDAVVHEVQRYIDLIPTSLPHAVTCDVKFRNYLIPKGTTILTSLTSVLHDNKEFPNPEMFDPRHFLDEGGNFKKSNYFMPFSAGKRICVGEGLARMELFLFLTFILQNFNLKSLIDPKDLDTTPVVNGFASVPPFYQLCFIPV
T1 sequence (Q16539 whole entry): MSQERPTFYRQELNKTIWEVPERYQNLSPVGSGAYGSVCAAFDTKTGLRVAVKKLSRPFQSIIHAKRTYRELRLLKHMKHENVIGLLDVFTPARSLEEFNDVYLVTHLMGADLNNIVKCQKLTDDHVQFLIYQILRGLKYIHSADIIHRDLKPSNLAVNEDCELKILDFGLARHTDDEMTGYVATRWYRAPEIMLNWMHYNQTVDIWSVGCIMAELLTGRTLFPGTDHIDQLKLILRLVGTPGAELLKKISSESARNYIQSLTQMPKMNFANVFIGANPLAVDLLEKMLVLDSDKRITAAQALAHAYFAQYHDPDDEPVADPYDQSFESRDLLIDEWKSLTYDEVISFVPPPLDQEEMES
T4 sequence (P11712 whole entry): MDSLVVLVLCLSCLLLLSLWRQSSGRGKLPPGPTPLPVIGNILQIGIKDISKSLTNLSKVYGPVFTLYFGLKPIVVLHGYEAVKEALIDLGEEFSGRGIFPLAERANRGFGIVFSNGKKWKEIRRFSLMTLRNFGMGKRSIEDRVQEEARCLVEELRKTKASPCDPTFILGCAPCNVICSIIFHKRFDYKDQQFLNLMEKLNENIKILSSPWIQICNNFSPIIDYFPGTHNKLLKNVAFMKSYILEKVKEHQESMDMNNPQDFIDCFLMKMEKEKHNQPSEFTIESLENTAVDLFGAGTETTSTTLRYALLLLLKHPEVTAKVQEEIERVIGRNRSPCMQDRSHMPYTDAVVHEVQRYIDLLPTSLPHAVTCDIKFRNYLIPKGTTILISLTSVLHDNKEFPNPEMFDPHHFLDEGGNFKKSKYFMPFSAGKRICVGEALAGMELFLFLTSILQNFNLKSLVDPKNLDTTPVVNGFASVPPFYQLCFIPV

| IC50 [1] [nM] | Degradation: compound remaining, AVERAGE ([2]; 0 min) [%] | Degradation: compound remaining, AVERAGE ([2]; 10 min) [%] | Degradation: compound remaining, AVERAGE ([2]; 20 min) [%] | Degradation: compound remaining, AVERAGE ([2]; 30 min) [%] | Degradation: compound remaining, AVERAGE ([2]; 60 min) [%] | Degradation: compound remaining, AVERAGE ([2]; 120 min) [%] | Degradation: compound remaining, AVERAGE ([2]; 180 min) [%] | Degradation: compound remaining, AVERAGE ([2]; 240 min) [%] | compound present / remaining unmetabolized [2] | biotransformation / degradation [2] [%] | inhibition at 10 µM (CYP1A2) [%] | inhibition at 10 µM (CYP2C19) [%] | inhibition at 10 µM (CYP2C9) [%] | inhibition at 10 µM (CYP2D6) [%] | inhibition at 10 µM (CYP3A4) [%] | IC50 (p38α MAP kinase [9]) [nM] | increase in binding affinity toward p38α MAP kinase relative to the 2-alkylsulfanylimidazole counterpart (p38α MAP kinase [10]) [fold] | Ki (p38α MAP kinase [10]) [nM] | inhibition at 10 µM [11] [%] | SMILES | further results |
| --- | --- | --- | --- | --- | --- | --- | --- | --- | --- | --- | --- | --- | --- | --- | --- | --- | --- | --- | --- | --- | --- |
| – | 100.00 | 86.86 | 77.42 | 61.96 | 51.99 | 37.23 | 32.10 | 28.49 | – | > 70 | 28 | 63 | 91.5 | 41.5 | 61 | – | – | – | – | CC(C)C(C)Nc1cc(-c2nc(SCCO)[nH]c2-c2ccc(F)cc2)ccn1 (stereo not shown) [LN950, 2-((5-(4-fluorophenyl)-4-(2-((3-methylbutan-2-yl)amino)pyridin-4-yl)-1H-imidazol-2-yl)thio)ethan-1-ol, reference compound] | Ki (p38α MAP kinase [8]): 4 ± 1 nM; IC50 ([3]; LPS-stimulated human whole blood, read-out: HWB Assay TNF-α IC50): 37 ± 4 nM |
| 32 ± 1 | 100.00 | 97.15 | 93.57 | 91.84 | 91.99 | 91.57 | 90.42 | 89.73 | – | 10 | 69.4 | 83.6 | 61.9 | 78.8 | 92.1 | 11 ± 5 | 4 | 1 ± 0.2 | > 60 | CC(C)C(C)Nc1cc(-c2[nH]c(CCCO)nc2-c2ccc(F)cc2)ccn1 (stereo not shown) [compound 2, 3-(4-(4-Fluorophenyl)-5-(2-((3-methylbutan-2-yl)amino)pyridin-4-yl)-1H-imidazol-2-yl)propan-1-ol] | more active than reference compound ML3403 (p38α MAP kinase [9]; p38α MAP kinase): 3.6 fold; CYP test concentration of 10 µM relative to the IC50 value in the kinase activity assay [12]: ~1000 fold |

Further lines, the compound ahead of its results:

| SMILES | IC50 [1] [nM] | Degradation: compound remaining, AVERAGE ([2]; 0 min) [%] | Degradation: compound remaining, AVERAGE ([2]; 10 min) [%] | Degradation: compound remaining, AVERAGE ([2]; 20 min) [%] | Degradation: compound remaining, AVERAGE ([2]; 30 min) [%] | Degradation: compound remaining, AVERAGE ([2]; 60 min) [%] | Degradation: compound remaining, AVERAGE ([2]; 120 min) [%] | Degradation: compound remaining, AVERAGE ([2]; 180 min) [%] | Degradation: compound remaining, AVERAGE ([2]; 240 min) [%] | compound present / remaining unmetabolized [2] | biotransformation / degradation [2] [%] | inhibition at 10 µM (CYP1A2) [%] | inhibition at 10 µM (CYP2C19) [%] | inhibition at 10 µM (CYP2C9) [%] | inhibition at 10 µM (CYP2D6) [%] | inhibition at 10 µM (CYP3A4) [%] | IC50 (p38α MAP kinase [9]) [nM] | increase in binding affinity toward p38α MAP kinase relative to the 2-alkylsulfanylimidazole counterpart (p38α MAP kinase [10]) [fold] | Ki (p38α MAP kinase [10]) [nM] | inhibition at 10 µM [11] [%] | further results |
| --- | --- | --- | --- | --- | --- | --- | --- | --- | --- | --- | --- | --- | --- | --- | --- | --- | --- | --- | --- | --- | --- |
| CSc1nc(-c2ccnc(NC(C)c3ccccc3)c2)c(-c2ccc(F)cc2)[nH]1 (stereo not shown) [ML3403, 4-(5-(4-fluorophenyl)-2-(methylthio)-1H-imidazol-4-yl)-N-(1-phenylethyl)pyridin-2-amine, reference compound] | 2980 ± 874 | 100.00 | 80.59 | 68.97 | 57.93 | 42.80 | 31.72 | 24.06 | 16.25 | less than 20% | – | – | – | – | – | – | – | – | – | – | half-life at 100 µM ([2]; both sexes, human, pooled human liver microsomes, pH 7.4, pooled HLM, this study, read-out: in vitro half-life (converted)): 51.6 min; IC50 ([3]; printed in Figure 1, known inhibitors, read-out: IC50 (TNF-α)): 2700 nM; in vitro half-life [4]: 32.7 min; in vitro half-life [5]: 5.9 min; in vitro half-life [6]: 11.4 min |
| CC(Nc1cc(-c2nc([S+](C)[O-])[nH]c2-c2ccc(F)cc2)ccn1)c1ccccc1 (stereo not shown) [ML3603] | – | – | – | – | – | – | – | – | – | – | – | – | – | – | – | – | – | – | – | – | activity on p38α MAP kinase (p38α MAP kinase [7]): active |
| CCc1nc(-c2ccc(F)cc2)c(-c2ccnc(NC(C)c3ccccc3)c2)[nH]1 (stereo not shown) [compound 1, 4-(2-Ethyl-4-(4-fluorophenyl)-1H-imidazol-5-yl)-N-(1-phenylethyl)pyridin-2-amine] | 2539 ± 20 | 100.00 | 92.72 | 89.75 | 87.96 | 86.27 | 83.65 | 80.90 | 79.75 | up to 80% | 20 | 85.6 | 71 | 85.1 | 90.2 | 97.6 | 25 ± 2 | 4 | 11 ± 3 | > 70 | – |
